Patent US20210330611A1, “THERAPY FOR NEUROLOGICAL DISEASES/DISORDERS” (priority 2020, published 2021)
Structures can show the parent of a compound that is named as a salt. Where two headings read alike, the source gives them in different places.

Experiments:
[1] = tested on: fibrin-induced microglia activation; assay: Image-based assay of fibrin-induced microglia activation (HTS and dose response); format: cell-based, rat; settings: primary microglia HTS, fibrin stimulation; for inhibition at 10 µM: Rattus norvegicus, Microglia, read-out: Fibrin % inhibition
[2] = tested on: LPS-induced microglia activation; assay: Image-based assay of LPS-induced microglia activation (HTS and dose response); format: cell-based, rat; settings: for inhibition at 10 µM: Rattus norvegicus, Microglia, read-out: LPS % inhibition
[3] = tested on: fibrin- and LPS-induced microglia activation; assay: cells; format: cell-based, rat
primary rat microglia [4] = tested on: primary rat microglia
primary rat microglia [5] = assay: Cell toxicity (dead cells, size <150 μm2) in coated fibrin (cFib) assay; settings: primary microglia HTS;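 further: share of dead cells sized under 150 µm2 at 10 µM in fibrin-stimulated microglia HTS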
[6] = cell size >800 μm2 as marker of activation
[7] = classification by fibrin and LPS inhibition in HTS
[8] = fibrin stimulation, cell size <150 μm2 as marker of toxicity
[9] = 48 h, primary microglia HTS, LPS stimulation, cell size >800 μm2 as marker of activation
[10] = primary microglia HTS, LPS stimulation, compounds at 10 μM
[11] = quadrant by fibrin and LPS inhibition, HTS at 10 μM
[12] = fibrin assay, dead cells (size <150 μm2)

With `Cc1cc(CC(C)CC(C)(C)C)n(O)c(=O)c1.NCCO` (stereo not shown) [Piroctone Olamine] the Fibrin % inhibition [1, 6] was 44%, the LPS % inhibition [2] was 39% and the “Quadrant (FIG. 5b)” value [3, 7] was “Q4”. The “LPS % cell toxicity” value (primary rat microglia [4]) was 1% and the “Fibrin % cell toxicity” value (primary rat microglia [5]; [8]) was 1%.
With `CCn1cc(C(=O)O)c(=O)c2cnc(N3CCCC3)nc21` [Piromidic Acid] the inhibition at 10 µM [1, 6] was -30%, the inhibition at 10 µM ([2]; 48 h) was 7% and the “Quadrant (FIG. 5b)” value [3, 7] was “Q4”. The “LPS % cell toxicity” value (primary rat microglia [4]; rat) was 0% and the “Fibrin % cell toxicity” value (primary rat microglia [5]; [8]) was 1%.
In the case of `CN1C(C(=O)Nc2ccccn2)=C(O)c2ccccc2S1(=O)=O` [Piroxicam], the inhibition at 10 µM [1, 6] is reported as 4%, the inhibition at 10 µM ([2]; 48 h) is reported as 19% and the “Quadrant (FIG. 5b)” value [3, 7] is reported as “Q4”. The “LPS % cell toxicity” value (primary rat microglia [4]; rat) was 0% and the “Fibrin % cell toxicity” value (primary rat microglia [5]; [8]) was 1%.
For `CCCCOc1ccc(OCCCN2CCOCC2)cc1` [Pramocaine], the inhibition at 10 µM [1, 6] was 14%, the inhibition at 10 µM ([2]; 48 h) was 13% and the “Quadrant (FIG. 5b)” value [3, 7] was “Q4”. The “LPS % cell toxicity” value (primary rat microglia [4]; rat) was 0% and the “Fibrin % cell toxicity” value (primary rat microglia [5]; [8]) was 0%.
With `CC(C(=O)O)c1ccc2c(c1)Cc1cccnc1O2` (stereo not shown) [Pranoprofen] the inhibition at 10 µM [1, 6] was -14%, the inhibition at 10 µM [2, 9] was 8% and the “Quadrant (FIG. 5b)” value [3, 7] was “Q4”. The “LPS % cell toxicity” value (primary rat microglia [4]; rat) was 0% and the “Fibrin % cell toxicity” value (primary rat microglia [5]; [8]) was 1%.
`CC[C@H](C)C(=O)O[C@H]1C[C@H](O)C=C2C=C[C@H](C)[C@H](CC[C@@H](O)C[C@@H](O)CC(=O)O)[C@H]21` [Pravastatin Sodium] was tested, and the Fibrin % inhibition [1, 6] was 21%, the LPS % inhibition [2] was 11% and the “Quadrant (FIG. 5b)” value [3, 7] was “Q4”. The “LPS % cell toxicity” value (primary rat microglia [4]; rat) was 0% and the “Fibrin % cell toxicity” value (primary rat microglia [5]; [8]) was 1%.
`CC[C@H](C)C(=O)O[C@H]1C[C@H](O)C=C2C=C[C@H](C)[C@H](CC[C@@H](O)C[C@@H](O)CC(=O)O)[C@H]21` [Pravastatin] was tested, and the Fibrin % inhibition [1, 6] was 10%, the inhibition at 10 µM ([2]; 48 h) was 10% and the “Quadrant (FIG. 5b)” value [3, 7] was “Q4”. For the same molecule, the “LPS % cell toxicity” value (primary rat microglia [4]; rat) was 0% and the “Fibrin % cell toxicity” value (primary rat microglia [5]; [8]) was 1%.
With `C[C@]12C=CC(=O)C=C1CC[C@@H]1[C@@H]2[C@@H](O)C[C@@]2(C)[C@H]1CC[C@]2(O)C(=O)COC(=O)CCC(=O)O` [Prednisolone Hemisuccinate] the inhibition at 10 µM ([1]; compounds at 10 μM) was 106%, the inhibition at 10 µM [2, 10] was 96% and the “Quadrant (FIG. 5b)” value [3, 11] was “Q2”. For the same molecule, the “LPS % cell toxicity” value (primary rat microglia [4]; rat) was 3% and the “Fibrin % cell toxicity” value (primary rat microglia [5]; [12]) was 3%.
In the case of `CC(=O)[C@H]1CC[C@H]2[C@@H]3CC=C4C[C@@H](O)CC[C@]4(C)[C@H]3CC[C@]12C` [Pregnenolone], the Fibrin % inhibition [1, 6] is reported as −11%, the LPS % inhibition [2] is reported as 12% and the “Quadrant (FIG. 5b)” value [3, 7] is reported as “Q4”. For the same molecule, the “LPS % cell toxicity” value (primary rat microglia [4]) was 0% and the “Fibrin % cell toxicity” value (primary rat microglia [5]; [8]) was 1%.
In the case of `OC(CCN1CCCCC1)(c1ccccc1)c1ccccc1` [Pridinol], the inhibition at 10 µM [1, 6] is reported as -18%, the inhibition at 10 µM ([2]; 48 h) is reported as 4% and the “Quadrant (FIG. 5b)” value [3, 7] is reported as “Q4”. The “LPS % cell toxicity” value (primary rat microglia [4]; rat) was 0% and the “Fibrin % cell toxicity” value (primary rat microglia [5]; [8]) was 1%.
For `CCCNC(C)C(=O)Nc1ccccc1C` (stereo not shown) [Prilocaine], the inhibition at 10 µM [1, 6] was -3%, the inhibition at 10 µM ([2]; 48 h) was 12% and the “Quadrant (FIG. 5b)” value [3, 7] was “Q4”. The “LPS % cell toxicity” value (primary rat microglia [4]; rat) was 0% and the “Fibrin % cell toxicity” value (primary rat microglia [5]; [8]) was 0%.
For `CC(C)(Sc1cc(C(C)(C)C)c(O)c(C(C)(C)C)c1)Sc1cc(C(C)(C)C)c(O)c(C(C)(C)C)c1` [Probucol], the inhibition at 10 µM [1, 6] was 12%, the inhibition at 10 µM ([2]; 48 h) was -1% and the “Quadrant (FIG. 5b)” value [3, 7] was “Q4”. The “LPS % cell toxicity” value (primary rat microglia [4]; rat) was 0% and the “Fibrin % cell toxicity” value (primary rat microglia [5]; [8]) was 0%.
`CCN(CC)CCOC(=O)c1ccc(N)cc1` [Procaine, Novocain] was tested, and the Fibrin % inhibition [1, 6] was −10%, the LPS % inhibition [2] was 25% and the “Quadrant (FIG. 5b)” value [3, 7] was “Q4”. The “LPS % cell toxicity” value (primary rat microglia [4]) was 0% and the “Fibrin % cell toxicity” value (primary rat microglia [5]; [8]) was 0%.
With `CCC(NC(C)C)C(O)c1ccc(O)c2[nH]c(=O)ccc12` (stereo not shown) [Procaterol] the inhibition at 10 µM [1, 6] was 16%, the inhibition at 10 µM ([2]; 48 h) was 21% and the “Quadrant (FIG. 5b)” value [3, 7] was “Q4”. For the same molecule, the “LPS % cell toxicity” value (primary rat microglia [4]; rat) was 0% and the “Fibrin % cell toxicity” value (primary rat microglia [5]; [8]) was 1%.
`O=C(O)CCc1nc2ccccc2[nH]1` [Procodazole] was tested, and the inhibition at 10 µM [1, 6] was -15%, the inhibition at 10 µM ([2]; 48 h) was 15% and the “Quadrant (FIG. 5b)” value [3, 7] was “Q4”. The “LPS % cell toxicity” value (primary rat microglia [4]; rat) was 0% and the “Fibrin % cell toxicity” value (primary rat microglia [5]; [8]) was 1%.
`OC(CCN1CCCC1)(c1ccccc1)C1CCCCC1` (stereo not shown) [Procyclidine] was tested, and the inhibition at 10 µM [1, 6] was 0%, the inhibition at 10 µM ([2]; 48 h) was 26% and the “Quadrant (FIG. 5b)” value [3, 7] was “Q4”. For the same molecule, the “LPS % cell toxicity” value (primary rat microglia [4]; rat) was 1% and the “Fibrin % cell toxicity” value (primary rat microglia [5]; [8]) was 1%.
With `Nc1ccc2cc3ccc(N)cc3nc2c1` [Proflavine] the inhibition at 10 µM ([1]; compounds at 10 μM) was 113%, the inhibition at 10 µM [2, 10] was 132% and the “Quadrant (FIG. 5b)” value [3, 11] was “Q2”. For the same molecule, the “LPS % cell toxicity” value (primary rat microglia [4]; rat) was 59% and the “Fibrin % cell toxicity” value (primary rat microglia [5]; [12]) was 82%.
In the case of `CCCN(CCC)C(=O)C(CCC(=O)O)NC(=O)c1ccccc1` (stereo not shown) [Proglumide], the inhibition at 10 µM [1, 6] is reported as -4%, the inhibition at 10 µM ([2]; 48 h) is reported as -1% and the “Quadrant (FIG. 5b)” value [3, 7] is reported as “Q4”. For the same molecule, the “LPS % cell toxicity” value (primary rat microglia [4]; rat) was 0% and the “Fibrin % cell toxicity” value (primary rat microglia [5]; [8]) was 1%.
In the case of `CC(C)NC(=N)NC(=N)Nc1ccc(Cl)cc1` [Proguanil; Chlorguanide Hydrochloride], the Fibrin % inhibition [1, 6] is reported as −7%, the LPS % inhibition [2] is reported as 20% and the “Quadrant (FIG. 5b)” value [3, 7] is reported as “Q4”. For the same molecule, the “LPS % cell toxicity” value (primary rat microglia [4]) was 1% and the “Fibrin % cell toxicity” value (primary rat microglia [5]; [8]) was 0%.
For `CC(CN1c2ccccc2Sc2ccccc21)N(C)C` (stereo not shown) [Promethazine], the inhibition at 10 µM [1, 6] was -30%, the inhibition at 10 µM ([2]; 48 h) was 5% and the “Quadrant (FIG. 5b)” value [3, 7] was “Q4”. For the same molecule, the “LPS % cell toxicity” value (primary rat microglia [4]; rat) was 0% and the “Fibrin % cell toxicity” value (primary rat microglia [5]; [8]) was 0%.
In the case of `CC(C)[N+](C)(CCOC(=O)C1c2ccccc2Oc2ccccc21)C(C)C` [Propantheline], the inhibition at 10 µM [1, 6] is reported as -7%, the inhibition at 10 µM ([2]; 48 h) is reported as 20% and the “Quadrant (FIG. 5b)” value [3, 7] is reported as “Q4”. For the same molecule, the “LPS % cell toxicity” value (primary rat microglia [4]; rat) was 0% and the “Fibrin % cell toxicity” value (primary rat microglia [5]; [8]) was 1%.
In the case of `CCCOc1ccc(C(=O)OCCN(CC)CC)cc1N` [Proparacaine], the inhibition at 10 µM [1, 6] is reported as -6%, the inhibition at 10 µM ([2]; 48 h) is reported as 13% and the “Quadrant (FIG. 5b)” value [3, 7] is reported as “Q4”. For the same molecule, the “LPS % cell toxicity” value (primary rat microglia [4]; rat) was 0% and the “Fibrin % cell toxicity” value (primary rat microglia [5]; [8]) was 1%.
With `CNC(=O)Oc1ccccc1OC(C)C` [Propoxur] the inhibition at 10 µM [1, 6] was -51%, the inhibition at 10 µM [2, 9] was 8% and the “Quadrant (FIG. 5b)” value [3, 7] was “Q4”. The “LPS % cell toxicity” value (primary rat microglia [4]; rat) was 0% and the “Fibrin % cell toxicity” value (primary rat microglia [5]; [8]) was 1%.
For `CCCOc1cc(N)ccc1C(=O)OCCN(CC)CC` [Propoxycaine], the inhibition at 10 µM [1, 6] was 13%, the inhibition at 10 µM ([2]; 48 h) was 14% and the “Quadrant (FIG. 5b)” value [3, 7] was “Q4”. The “LPS % cell toxicity” value (primary rat microglia [4]; rat) was 0% and the “Fibrin % cell toxicity” value (primary rat microglia [5]; [8]) was 0%.
For `C[C@@H]1O[C@@H](O[C@@H]2C=C3CC[C@@H]4[C@H](CC[C@]5(C)[C@@H](c6ccc(=O)oc6)CC[C@]45O)[C@@]3(C)CC2)[C@H](O)[C@H](O)[C@H]1O` [Proscillaridin], the inhibition at 10 µM [1, 6] was 8%, the inhibition at 10 µM ([2]; 48 h) was 16% and the “Quadrant (FIG. 5b)” value [3, 7] was “Q4”. For the same molecule, the “LPS % cell toxicity” value (primary rat microglia [4]; rat) was 0% and the “Fibrin % cell toxicity” value (primary rat microglia [5]; [8]) was 1%.
In the case of `CCCc1cc(C(N)=S)ccn1` [Protionamide, Ektebin], the Fibrin % inhibition [1, 6] is reported as −18%, the LPS % inhibition [2] is reported as 12% and the “Quadrant (FIG. 5b)” value [3, 7] is reported as “Q4”. The “LPS % cell toxicity” value (primary rat microglia [4]) was 0% and the “Fibrin % cell toxicity” value (primary rat microglia [5]; [8]) was 1%.
For `C=CC1=C(C)c2cc3[nH]c(cc4nc(cc5[nH]c(cc1n2)c(C)c5CCC(=O)O)C(CCC(=O)O)=C4C)c(C)c3C=C` [Protoporphyrin Ix], the inhibition at 10 µM [1, 6] was -70%, the inhibition at 10 µM ([2]; 48 h) was 2% and the “Quadrant (FIG. 5b)” value [3, 7] was “Q4”. For the same molecule, the “LPS % cell toxicity” value (primary rat microglia [4]; rat) was 0% and the “Fibrin % cell toxicity” value (primary rat microglia [5]; [8]) was 1%.
With `CC(O)Cn1cnc2c1c(=O)n(C)c(=O)n2C` (stereo not shown) [Proxyphylline] the inhibition at 10 µM [1, 6] was -21%, the inhibition at 10 µM ([2]; 48 h) was 11% and the “Quadrant (FIG. 5b)” value [3, 7] was “Q4”. The “LPS % cell toxicity” value (primary rat microglia [4]; rat) was 0% and the “Fibrin % cell toxicity” value (primary rat microglia [5]; [8]) was 1%.
In the case of `Cc1oc(=O)oc1CN1CCN(c2cc3c(cc2F)c(=O)c(C(=O)O)c2n3C(C)S2)CC1` (stereo not shown) [Prulifloxacin], the inhibition at 10 µM [1, 6] is reported as 7%, the inhibition at 10 µM ([2]; 48 h) is reported as 16% and the “Quadrant (FIG. 5b)” value [3, 7] is reported as “Q4”. The “LPS % cell toxicity” value (primary rat microglia [4]; rat) was 0% and the “Fibrin % cell toxicity” value (primary rat microglia [5]; [8]) was 1%.
